14 compounds from US6448228B1, “Dipeptide compounds having a high fungicidal activity and their agronomic use” (Isagro Ricerca S.r.l., priority 1998, dated 2002) can be followed below.

Read-outs that look alike come from different tables or passages of the source.

This assay relates to Plasmopara viticola. As to the kind of experiment: Fungicidal effectiveness against Peronospora (Plasmopara viticola) in preventive leaf application on vines. The note with it: 168 h, read-out: Effectiveness expressed as leaf diffusion control % of the disease with respect to a non-treated reference. The format is in vivo. As for the experimental part:
Determination of the Fungicidal Effectiveness Against Peronospora (Plasmapara viticola) of Compounds Having Formula (I) and (II) in Preventive Leaf Application
Cultivar Dolcetto vine leaves, grown in vases in a conditioned environment (20±1° C.), 70% relative humidity), are treated by spraying both sides of the leaves with compounds 1-7 dispersed in a hydroacetone solution at 20% by volume of acetone.
After remaining 24 hours in a conditioned environment, the plants are sprayed on both sides of the leaf with an aqueous suspension of conidia of Plasmopara viticola (200,000 conidia per cm^3).
The plants are kept in a humidity saturated environment, at 21° C., for the incubation period of the fungus and, at the end of this period (7 days), the fungicidal activity is evaluated according to an evaluation percentage scale from 100 (healthy plant) to 0 (completely infected plant).

Setting [1] is: Dose 0.45 g/hl, preventive leaf application on Dolcetto vines, inoculation 24 hours after treatment, evaluation after 7 days, scale 100 (healthy plant) to 0 (completely infected plant).
The mark [2] stands for this setting: Dose 1.8 g/hl, preventive leaf application on Dolcetto vines, inoculation 24 hours after treatment, evaluation after 7 days, scale 100 (healthy plant) to 0 (completely infected plant).
Setting [3] is: Dose 7.5 g/hl, preventive leaf application on Dolcetto vines, inoculation 24 hours after treatment, evaluation after 7 days, scale 100 (healthy plant) to 0 (completely infected plant).
Where [4] appears, read: Dose 30 g/hl, preventive leaf application on Dolcetto vines, inoculation 24 hours after treatment, evaluation after 7 days, scale 100 (healthy plant) to 0 (completely infected plant).

`COC(=O)CC(NC(=O)[C@@H](NC(=O)OC(C)C)C(C)C)c1ccc(Cl)cc1` (mixture of isomers) [Compound 1, methyl (±)RS-[3-(N-isopropoxy-carbonyl-S-valinyl)amino]-3-(4-chlorophenyl)propanoate]: the pest or weed control at 0.45 g/hl under setting [1] is 80%. Further, the pest or weed control at 1.8 g/hl under setting [2] turned out to be 100%. Further, the pest or weed control at 7.5 g/hl under setting [3] was 100%. Further, the pest or weed control at 30 g/hl under setting [4] turned out to be 100%.

Take `COC(=O)C[C@@H](NC(=O)[C@@H](NC(=O)OC(C)C)C(C)C)c1ccc(Cl)cc1` (racemic) [Compound 2, methyl (±)R-[3-(N-isopropoxycarbonyl-S-valinyl)amino]-3-(4-chlorophenyl)propanoate]: the pest or weed control at 0.45 g/hl under setting [1] came to 100%. The pest or weed control at 1.8 g/hl under setting [2] was determined as 100%. Also, the pest or weed control at 7.5 g/hl under setting [3] came out at 100%. The pest or weed control at 30 g/hl under setting [4] came out at 100%.

Regarding `COC(=O)CC(NC(=O)[C@@H](NC(=O)OC(C)C)C(C)C)c1nc2ccccc2s1` (mixture of isomers) [Compound 8, methyl (±)RS-[3-(N-isopropoxycarbonyl-S-valinyl)amino]-3-(benzothiazol-2-yl)propanoate], the pest or weed control at 0.45 g/hl under setting [1] was 70%. Further, the pest or weed control at 1.8 g/hl under setting [2] came to 92%. In addition, the pest or weed control at 7.5 g/hl under setting [3] was 100%. Moreover, under setting [4], the pest or weed control at 30 g/hl came to 100%.

As for `COC(=O)CC(NC(=O)[C@@H](NC(=O)OC(C)C)C(C)C)c1nc2cc(Cl)ccc2s1` (mixture of isomers) [Compound 9, methyl (±)RS-[3-(N-isopropoxycarbonyl-S-valinyl)amino]-3-(5-chlorobenzothiazol-2-yl)propanoate], under setting [1], the pest or weed control at 0.45 g/hl worked out at 90%. Moreover, the pest or weed control at 1.8 g/hl under setting [2] was 100%. Besides, the pest or weed control at 7.5 g/hl under setting [3] was 100%. In addition, the pest or weed control at 30 g/hl under setting [4] was determined as 100%.

On to `COC(=O)C[C@H](NC(=O)[C@@H](NC(=O)OC(C)C)C(C)C)c1ccc(Cl)cc1` [Compound 3, methyl (−)S-[3-(N-isopropoxycarbonyl-S-valinyl)amino]-3-(4-chlorophenyl)propanoate], for which the pest or weed control at 0.45 g/hl under setting [1] came to 65%. For the same compound, the pest or weed control at 1.8 g/hl under setting [2] turned out to be 85%. The pest or weed control at 7.5 g/hl under setting [3] was found to be 100%. Further, the pest or weed control at 30 g/hl under setting [4] is 100%.

As for `COC(=O)CC(NC(=O)[C@@H](NC(=O)OC(C)C)C(C)C)c1ccc(C)cc1` (stereo partly shown) [Compound 4, methyl RS-[3-(N-isopropoxycarbonyl-S-valinyl)amino]-3-(4-methylphenyl)propanoate], the pest or weed control at 0.45 g/hl under setting [1] was determined as 75%. The pest or weed control at 1.8 g/hl under setting [2] is 100%. The pest or weed control at 7.5 g/hl under setting [3] was 100%. Besides, the pest or weed control at 30 g/hl under setting [4] was 100%.

As to `CCc1ccc(C(CC(=O)OC)NC(=O)[C@@H](NC(=O)Oc2ccccc2)C(C)C)cc1` (stereo partly shown) [Compound 5, methyl RS-[3-(N-phenoxycarbonyl-S-valinyl)amino]-3-(4-ethylphenyl)propanoate], the pest or weed control at 0.45 g/hl came to 70%, the pest or weed control at 1.8 g/hl amounted to 90%, the pest or weed control at 7.5 g/hl was 100% and the pest or weed control at 30 g/hl came to 100%.

Regarding `COC(=O)CC(NC(=O)[C@@H](NC(=O)OC(C)C)C(C)C)c1ccc(OC)cc1` (stereo partly shown) [Compound 6, methyl RS-[3-(N-isopropoxycarbonyl-S-valinyl)amino]-3-(4-methoxyphenyl)propanoate], under setting [1], the pest or weed control at 0.45 g/hl worked out at 65%. The pest or weed control at 1.8 g/hl under setting [2] turned out to be 92%. Further, the pest or weed control at 7.5 g/hl under setting [3] is 100%. Besides, the pest or weed control at 30 g/hl under setting [4] amounted to 100%.

On to `COC(=O)CC(NC(=O)[C@@H](NC(=O)OC(C)C)C(C)C)c1ccc(C#N)cc1` (stereo partly shown) [Compound 7, methyl RS-[3-(N-isopropoxycarbonyl-S-valinyl)amino]-3-(4-cyanophenyl)propanoate], for which the pest or weed control at 0.45 g/hl under setting [1] amounted to 67%. The pest or weed control at 1.8 g/hl under setting [2] worked out at 90%. For the same compound, under setting [4], the pest or weed control at 30 g/hl turned out to be 100%.

For `COC(=O)CC(NC(=O)[C@@H](NC(=O)OC(C)(C)C)C(C)C)c1ccccc1` (stereo partly shown) [Reference 1, reference compound], the pest or weed control at 0.45 g/hl under setting [1] was determined as 0%. Under setting [2], the pest or weed control at 1.8 g/hl is 20%. Further, the pest or weed control at 7.5 g/hl under setting [3] was 90%. Also, the pest or weed control at 30 g/hl under setting [4] turned out to be 100%.

`COC(=O)CC(NC(=O)[C@@H](NC(=O)OC(C)(C)C)C(C)C)c1ccc(Cl)cc1` (stereo partly shown) [Reference 2, reference compound]: the pest or weed control at 0.45 g/hl under setting [1] is 30%. Further, the pest or weed control at 1.8 g/hl under setting [2] was determined as 65%. For the same compound, the pest or weed control at 7.5 g/hl under setting [3] amounted to 88%. Under setting [4], the pest or weed control at 30 g/hl turned out to be 100%.

As for `COC(=O)CC(NC(=O)[C@@H](NC(=O)OC(C)C)C(C)C)c1ccccc1` (stereo partly shown) [Reference 3, reference compound], the pest or weed control at 0.45 g/hl under setting [1] is 10%. Moreover, the pest or weed control at 1.8 g/hl under setting [2] is 55%. Moreover, the pest or weed control at 7.5 g/hl under setting [3] turned out to be 91%. For the same compound, the pest or weed control at 30 g/hl under setting [4] came out at 100%.

For the compound `COC(=O)C(C)(C)C(NC(=O)[C@@H](NC(=O)OC(C)C)C(C)C)c1ccccc1` (stereo partly shown) [Reference 4, reference compound], the pest or weed control at 0.45 g/hl under setting [1] was found to be 15%. For the same compound, under setting [2], the pest or weed control at 1.8 g/hl was 55%. The pest or weed control at 7.5 g/hl under setting [3] is 75%. Moreover, the pest or weed control at 30 g/hl under setting [4] worked out at 90%.

Turning to `CC(C)OC(=O)CC(NC(=O)[C@@H](NC(=O)OC(C)C)C(C)C)c1ccccc1` (stereo partly shown) [Reference 5, reference compound], the pest or weed control at 0.45 g/hl under setting [1] is 0%. For the same compound, the pest or weed control at 1.8 g/hl under setting [2] was 15%. In addition, under setting [3], the pest or weed control at 7.5 g/hl came to 75%. Besides, the pest or weed control at 30 g/hl under setting [4] was found to be 96%.
